System in one assay: not listed separately
Kind of assay: Antioxidant activity assessed as DPPH radical scavenging activity after 30 mins. It is filed as functional.
Conditions: not given
Turning to `CCOC(=O)C[C@@H](C(=O)O)[C@H]1c2c(cc(O)c(O)c2O)C(=O)O[C@@H]1C(=O)OCC`, the EC50 is 15.8 µM. Same read-out and setting: next, `CCOC(=O)/C=C(/C(=O)OCC)[C@H]1c2c(cc(O)c(O)c2O)C(=O)O[C@@H]1C(=O)OC`: 4.4 µM.

As to `CCOC(=O)/C=C(/C(=O)OCC)[C@H]1c2c(cc(O)c(O)c2O)C(=O)O[C@@H]1C(=O)OCC`, the EC50 amounted to 2.2 µM. As for `O=C1C[C@H](C(=O)O)c2c1oc(=O)c1cc(O)c(O)c(O)c21`, the EC50 is 3 µM. The same measure, in the same setting: the value for `CCOC(=O)C1(OCC)CC(=O)c2oc(=O)c3cc(O)c(O)c(O)c3c21` (racemic) was 4 µM; that for `CCOC(=O)/C=C(/C(=O)O)[C@H]1c2c(cc(O)c(O)c2O)C(=O)O[C@@H]1C(=O)OCC` was 8.1 µM. With `CCOC(=O)Cc1c2c3c(cc(O)c(O)c3oc1=O)C(=O)OC2C(=O)OCC` (racemic), the EC50 is 4.2 µM. `CCOC(=O)Cc1c2c3c(cc(O)c(O)c3oc1=O)C(=O)C2(O)C(=O)OCC` (racemic): the EC50 amounted to 5.3 µM. Regarding `CCOC(=O)Cc1c2c3c(cc(O)c(O)c3oc1=O)C(=O)OC2C(=O)OC` (racemic), the EC50 was 6.5 µM. As for `O=C(O)Cc1c2c3c(cc(O)c(O)c3oc1=O)C(=O)OC2`, the EC50 stood at 4.7 µM.

Take `CCOC(=O)C1OC(=O)c2cc(O)c(O)c3oc(=O)c(CC(=O)O)c1c23` (racemic): the EC50 was determined as 9.9 µM.

Turning to `COC(=O)C1OC(=O)c2cc(O)c(O)c3oc(=O)c(CC(=O)O)c1c23` (racemic), the EC50 came to 7.7 µM. `CCOC(=O)Cc1c2c3c(cc(O)c(O)c3oc1=O)C(=O)OC2`: the EC50 worked out at 2.2 µM. As to `O=C1CCc2c1oc(=O)c1cc(O)c(O)c(O)c21`, the EC50 was found to be 7.6 µM. For `CCOC(=O)/C=C(/C(=O)OC)[C@H]1c2c(cc(O)c(O)c2O)C(=O)O[C@@H]1C(=O)OCC`, the EC50 is 6 µM. `CCOC(=O)/C=C(/C(=O)OCC)[C@H]1c2c(cc(O)c(O)c2O)C(=O)O[C@@H]1C(=O)O`: the EC50 was 5.4 µM.

Consider `CCOC(=O)[C@H]1CC(=O)c2oc(=O)c3cc(O)c(O)c(O)c3c21`, for which the concentration for a half-maximal effect (EC50) was 6.7 µM. For the compound `COC(=O)Cc1c2c3c(cc(O)c(O)c3oc1=O)C(=O)OC2`, the EC50 was 8 µM. As for `CCOC(=O)/C(=C/C(=O)O)[C@H]1c2c(cc(O)c(O)c2O)C(=O)O[C@@H]1C(=O)OCC`, the EC50 worked out at 10.8 µM. In the case of `CCOC(=O)[C@H]1CC(=O)c2c1c1c(O)c(O)c(O)cc1c(=O)n2CCCC(=O)OC`, the EC50 came to 6.7 µM. On the same count and under the same terms, the value for `CCOC(=O)C[C@@H](C(=O)OCC)[C@H]1c2c(cc(O)c(O)c2O)C(=O)O[C@@H]1C(=O)OCC` was 6.8 µM; that for `COC(=O)[C@H]1CC(=O)c2oc(=O)c3cc(O)c(O)c(O)c3c21` was 6 µM.

For `CCOC(=O)[C@H]1OC(=O)c2cc(O)c(O)c(O)c2[C@@H]1[C@@H](CC(=O)O)C(=O)OCC`, the EC50 amounted to 8.1 µM. Still for that read-out and setting: next, `O=C1O[C@H]([C@@H](O)CO)C(O)=C1O` [ASCORBIC ACID]: 9.2 µM.

The test system of the next assay is BV-2. Kind of assay: Antineuroinflammatory activity in mouse BV2 cells assessed as inhibition of LPS-induced NO production incubated for 24 hrs by Griess assay. The class given is functional, cell-based. To be noted: BV-2, 24 h.
Take `CN(C)c1ccc(O)c2c1C[C@H]1C[C@H]3[C@H](N(C)C)C(O)=C(C(N)=O)C(=O)[C@@]3(O)C(O)=C1C2=O` [MINOCYCLINE]: the 50% inhibitory concentration (IC50) turned out to be 18.5 µM. In the case of `CCOC(=O)Cc1c2c3c(cc(O)c(O)c3oc1=O)C(=O)C2(O)C(=O)OCC` (racemic), the IC50 turned out to be 31.5 µM. Turning to `O=C1CCc2c1oc(=O)c1cc(O)c(O)c(O)c21`, the IC50 turned out to be 27 µM. In the case of `CCOC(=O)[C@H]1CC(=O)c2oc(=O)c3cc(O)c(O)c(O)c3c21`, the IC50 worked out at 30.5 µM.

Values taken from ChEMBL document CHEMBL4610075, “Isolation, Absolute Configuration, and Biological Activities of Chebulic Acid and Brevifolincarboxylic Acid Derivatives from Euphorbia hirta” (J Nat Prod, 2020).
